ChEMBL document CHEMBL4476871, “SULFAMIDE AND SULFAMATE INHIBITORS OF hHint1” (2018)

Key:
[1] = tested on: Mus musculus; assay: Effect on spared nerve injury-induced ICR mouse model of neuropathic pain administered intrathecally for 3 days by Von Frey test; assay type: functional; conditions: central, 72 h
[2] = tested on: Mus musculus; assay: Suppression of morphine-induced analgesic tolerance in ICR mouse model of spared nerve injury-induced neuropathic pain assessed as reduction in mechanical hypersensitivity administered intrathecally for 3 days prior to morphine challenge on day 4 by Von Frey test; assay type: functional; conditions: central
[3] = tested on: Mus musculus; assay: Suppression of morphine-induced analgesic tolerance in ICR mouse model of spared nerve injury-induced neuropathic pain assessed as reduction in mechanical hypersensitivity administered intrathecally for 3 days prior to morphine challenge on day 4 by Von Frey test relative to control; assay type: functional
[4] = Solubility of the compound in DMSO; assay type: physicochemical
[5] = tested on: Mus musculus; assay: Effect on spared nerve injury-induced ICR mouse model of neuropathic pain administered intrathecally for 3 days by Von Frey test relative to control; assay type: functional
[6] = biological target: T1, Adenosine 5'-monophosphoramidase HINT1 (Homo sapiens, UniProt P49773); assay: Binding affinity to full-length human N-terminal His6-tagged Hint1 expressed in Escherichia coli Rosetta 2 pLysS cells by isothermal titration calorimetry
T1 sequence (P49773 whole entry): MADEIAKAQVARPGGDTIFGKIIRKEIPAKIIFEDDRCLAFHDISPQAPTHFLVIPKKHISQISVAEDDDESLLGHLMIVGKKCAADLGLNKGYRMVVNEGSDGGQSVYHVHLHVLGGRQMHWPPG

[7] = biological target: T1, Adenosine 5'-monophosphoramidase HINT1; assay: Inhibition of human N-terminal His6-tagged Hint1 expressed in Escherichia coli Rosetta 2 pLysS cells by fluorescence assay
[8] = Solubility of the compound in water; assay type: physicochemical; conditions: buffer
[9] = Aqueous solubility of the compound; assay type: physicochemical; conditions: buffer

Question: For `Nc1nc2c(ncn2[C@@H]2O[C@H](COC(=O)NCCc3c[nH]c4ccccc34)[C@@H](O)[C@H]2O)c(=O)[nH]1`, which ED50 [1] is on record?
Answer: The ED50 was 2.3 mg/kg.

Question: What about the ED50 [2] of the same molecule?
Answer: The ED50 was 2.6 mg/kg.

Question: What about the “fold change (FC)” value [3] of the same molecule?
Answer: The value was 0.8.

Question: And the solubility [4]?
Answer: The solubility was “Soluble”.

Question: And the “fold change (FC)” value [5]?
Answer: The value was 0.7.

Question: With `Nc1nc2c(ncn2[C@@H]2O[C@H](COP(=O)(O)O)[C@@H](O)[C@H]2O)c(=O)[nH]1` as the molecule, how does the Kd [6] read?
Answer: Its Kd is 67 µM.

Question: Which IC50 [7] does the source give for `Nc1ncnc2c1ncn2[C@@H]1O[C@H](CNS(=O)(=O)NC(=O)CCCC[C@@H]2SC[C@@H]3NC(=O)N[C@@H]32)[C@@H](O)[C@H]1O` here?
Answer: The IC50 was 25.5 µM.

Question: Which results are given for `Nc1nc2c(ncn2[C@@H]2O[C@H](COC(=O)NCCc3c[nH]cn3)[C@@H](O)[C@H]2O)c(=O)[nH]1`?
Answer: solubility [4]: Soluble; Kd [6]: 3.43 µM

Question: For `CCNC(=O)OC[C@H]1O[C@@H](n2cnc3c(N)nc(N)nc32)[C@H](O)[C@@H]1O`, which solubility [4] is on record?
Answer: The solubility was “Soluble”.

Question: And the Kd [6]?
Answer: Its Kd is 2.45 µM.

Question: With `Nc1nc2c(ncn2[C@@H]2O[C@H](CSP(=O)(O)NCCc3c[nH]c4ccccc34)[C@@H](O)[C@H]2O)c(=O)[nH]1` as the molecule, how does the solubility [8] read?
Answer: Its solubility is “Soluble”.

Question: Which results are given for `Nc1nc2c([C@@H]3O[C@H](COS(=O)(=O)NC(=O)CCc4c[nH]c5ccccc45)[C@@H](O)[C@H]3O)scc2c(=O)[nH]1`?
Answer: solubility [8]: Soluble; Kd [6]: 5.2 µM

Question: With `Nc1nc2c(ncn2[C@@H]2O[C@H](CNS(=O)(=O)NC(=O)CCc3c[nH]c4ccccc34)[C@@H](O)[C@H]2O)c(=O)[nH]1` as the molecule, how does the solubility [9] read?
Answer: The solubility was “Soluble”.

Question: For `Nc1nc(N)c2ncn([C@@H]3O[C@H](COC(=O)Nc4ccccc4)[C@@H](O)[C@H]3O)c2n1`, which solubility [4] is on record?
Answer: Its solubility is “Soluble”.

Question: And the Kd [6]?
Answer: The Kd was 1.01 µM.

Question: For `CCN(CC)C(=O)OC[C@H]1O[C@@H](n2cnc3c(=O)[nH]c(N)nc32)[C@H](O)[C@@H]1O`, which solubility [4] is on record?
Answer: The solubility was “Soluble”.

Question: What about the Kd [6] of the same molecule?
Answer: The Kd was 47.2 µM.

Question: For `Nc1nc2c(ncn2[C@@H]2O[C@H](COP(=O)(O)NCCc3c[nH]c4ccccc34)[C@@H](O)[C@H]2O)c(=O)[nH]1`, which solubility [9] is on record?
Answer: Its solubility is “Soluble”.

Question: With `Nc1nc2c(ncn2[C@@H]2O[C@H](COC(=O)NCc3ccccc3)[C@@H](O)[C@H]2O)c(=O)[nH]1` as the molecule, how does the solubility [4] read?
Answer: Its solubility is “Insoluble”.

Question: What about the Kd [6] of the same molecule?
Answer: The Kd was 8.09 µM.

Question: For `O=C(CCc1c[nH]c2ccccc12)NS(=O)(=O)OC[C@H]1O[C@@H](n2cnc3c2ncn2ccnc32)[C@@H](O)C1O` (stereo partly specified), which ED50 [1] is on record?
Answer: The ED50 was 3.6 mg/kg.

Question: What about the solubility [9] of the same molecule?
Answer: Its solubility is “Soluble”.

Question: What about the ED50 [2] of the same molecule?
Answer: The ED50 was 4.6 mg/kg.

Question: For `Nc1nc2c(ncn2C2OC(COS(=O)(=O)NC(=O)CCc3c[nH]c4ccccc34)C(O)C2O)c(=O)[nH]1` (single isomer, unassigned), which solubility [9] is on record?
Answer: The solubility was “Soluble”.
